These are literature values, as cited in patent US20250031692A1, “HIGH LOAD SUSPENSION CONCENTRATE COMPOSITIONS” (ADAMA AGAN LTD., priority 2021, published 2025).

The structures appear in SMILES notation.

Series [1] has as its system grass and broadleaf weeds. The note with it: at lower application rates compared with other commercial herbicides.
In series [2] the target is T1, recombinant Fatty Acid Elongation 1 (FAE1) of Arabidopsis (Arabidopsis thaliana, UniProt Q38860).
T1 sequence (Q38860 1-506): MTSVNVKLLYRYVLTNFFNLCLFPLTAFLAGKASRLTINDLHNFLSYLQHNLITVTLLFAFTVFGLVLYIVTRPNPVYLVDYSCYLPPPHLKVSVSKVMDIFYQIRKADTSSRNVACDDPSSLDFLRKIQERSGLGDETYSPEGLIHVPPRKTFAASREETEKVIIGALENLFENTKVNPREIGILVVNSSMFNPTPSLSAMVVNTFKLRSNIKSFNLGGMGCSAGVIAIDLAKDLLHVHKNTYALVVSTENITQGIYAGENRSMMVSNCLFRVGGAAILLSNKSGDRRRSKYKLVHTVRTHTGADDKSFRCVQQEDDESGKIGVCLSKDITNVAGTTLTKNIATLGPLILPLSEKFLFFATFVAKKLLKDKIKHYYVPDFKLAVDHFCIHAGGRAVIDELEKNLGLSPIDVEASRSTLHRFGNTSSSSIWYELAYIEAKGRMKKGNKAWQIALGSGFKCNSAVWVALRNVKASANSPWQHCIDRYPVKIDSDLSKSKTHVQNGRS

Series [3] has as its system VLCFAE activity of the microsomal fraction of etiolated barnyard millet seedlings.
Series [4] relates to Echinochloa spp. and other annual weeds. The following applies: 150-200 g a.i./ha; long residual activity.

Consider `Cn1nc(C(F)(F)F)c(CS(=O)(=O)C2=NOC(C)(C)C2)c1OC(F)F` [Pyroxasulfone], for which the herbicidal activity result in series [1] is given as “excellent herbicidal activity”.

As for `CCOc1cc(Cl)c(CS(=O)(=O)C2=NOC(C)(C)C2)cc1Cl` [Fenoxasulfone, 3-[(2,5-dichloro-4-ethoxyphenyl)methylsulfonyl]-5,5-dimethyl-4H-1,2-oxazole], the figures for the “inhibition of VLCFAE activity” value in series [2] and in series [3] were “inhibited by fenoxasulfone in a time-dependent manner” and “inhibited by fenoxasulfone in a time-independent manner”, respectively. Further, the herbicidal activity result in series [4] was “excellent herbicidal activity”.
